System: 521955-158-R2-J5-PDC complex spheroid growth
Test: Anticancer human tumor 521955-158-R2-J5-PDC patient-derived pancreatic carcinoma cell line growth inhibition [AhR]
Conditions: for IC50: curve of first compound; for viability, T/C: stronger effect = lower value; active = viability on the fitted dose curve at most 10% of control; inactive = the rest
Source text: Multicellular complex tumor spheroid response to aryl hydrocarbon receptor antagonists in combination with a variety of drugs and investigational agents in selected tumor cell lines
The current study was undertaken to assess response to aryl hydrocarbon receptor antagonists in combination with standard-of-care drugs and investigational agents in solid tumor complex spheroid models. Complex spheroids include a stromal component modeled by human endothelial cells (HUVEC) and fibroblasts modeled by human mesenchymal stem cells (MSCs). The concentration ranges selected for each drug and investigational agent were based upon clinically achievable concentrations if the clinical Cmax of the agent was known.
Compounds. The drugs and investigational agents: BAY 2416964 (NSC825713), GNF351 (NSC835774), CH-223191 (NSC835775), CPI-455 (NSC825282), aza-TdCyd (NSC777586), decitabine (NSC127716), belinostat (NSC758774), entinostat (NSC756642), pevonedistat (NSC761192), tazemetostat (NSC777109), talazoparib (NSC765396), olaparib (NSC753686), selinexor (NSC780203), nedisertib (M3814, NSC802822), bortezomib (NSC756655), venetoclax (NSC766270), doxorubicin (NSC123127), elimusertib (BAY189344, NSC800525), ceralasertib (AZD6738, NSC777638), TAK-243 (NSC785004), alisertib (NSC759677), etoposide (NSC141540), topotecan (NSC609699), eribulin (NSC707389), gemcitabine (NSC613327), carboplatin (NSC241240), cisplatin (NSC119875), and SN-38 (NSC673596) were obtained from the National Cancer Institute (NCI) Developmental Therapeutics Program Chemical Repository (32). The FDA-approved anticancer drug set is available from the Developmental Therapeutics Program at https://dtp.cancer.gov/organization/dscb/obtaining/available plates.htm. […] The stock solutions were prepared in dimethyl sulfoxide (DMSO, Sigma-Aldrich, St. Louis, MO, cat. D2650), except for the platinum compounds which were prepared in saline (Quality Biological, Gaithersburg, MD, cat. 114-055-101), at 800-fold the tested concentration and stored at -70 degrees C prior to their use. All drugs and investigational agents were tested over a range starting from a high concentration at or near the clinical Cmax and decreasing in half-log increments. If the clinical Cmax for an agent had not been determined, the highest concentration tested was 10 microM (Table 1).
Cell Culture. All cells were maintained in an incubator at 37 degrees C and 5% CO2 with 95% humidity. The PDC lines were cultured according to standard operating procedures established by the NCI PDMR (https://pdmr.cancer.gov). Briefly, all PDCs were thawed and cultured in Matrigel-coated flasks prepared with a working solution of 1X Ham's F-12 nutrient mix, without supplementation (Invitrogen, Waltham, MA, cat. 11765054), 100 U/mL penicillin-streptomycin (Invitrogen, cat. 15140122), and 2.5% Matrigel (Corning Inc., Corning, NY, cat. 354248) for the first three passages. All PDCs were cultured in complete DMEM/F-12 media containing advanced DMEM/F-12 (Invitrogen, cat. 12634028), 4.9% defined fetal bovine serum, heat inactivated (HyClone Laboratories Inc., Logan, UT, cat. SH30070.03HI), 389 ng/mL hydrocortisone (Sigma-Aldrich, cat. H4001), 9.7 ng/mL human EGF recombinant protein (Invitrogen, cat. PHG0313), 23.4 microg/mL adenine (Sigma-Aldrich, cat. A2786), 97.3 U/mL penicillin-streptomycin (Invitrogen, cat. 15140122), 1.9 mM L-glutamine (Invitrogen, cat. 25030081), and 9.7 microM Y-27632 dihydrochloride (Tocris Bioscience, Bristol, United Kingdom, cat. 1254). The PDCs were cultured in complete DMEM/F12 media without 10 microM Y-27632 dihydrochloride for at least two passages prior to the screen. The established cell lines NCI-H1341 and […] were cultured in DMEM/F-12, HEPES (Invitrogen, cat. 11330032), 5% defined fetal bovine serum (HyClone Laboratories Inc., cat. SH30070.03), ITS premix universal culture supplement [insulin (5 microg/mL), transferrin (5 microg/mL), and selenious acid (5 ng/mL)] […]

[1] = second compound 0.1 µM, first compound 0.0316 µM
[2] = second compound 0.1 µM, first compound 0.1 µM
[3] = second compound 0.1 µM, first compound 0.316 µM
[4] = second compound 0.1 µM, first compound 1 µM
[5] = second compound 0.1 µM, first compound 3.16 µM
[6] = second compound 0.1 µM, first compound 10 µM
[7] = second compound 0.316 µM, first compound 0.0316 µM
[8] = second compound 0.316 µM, first compound 0.1 µM
[9] = second compound 0.316 µM, first compound 0.316 µM
[10] = second compound 0.316 µM, first compound 1 µM
[11] = second compound 0.316 µM, first compound 3.16 µM
[12] = second compound 0.316 µM, first compound 10 µM
[13] = second compound 1 µM, first compound 0.0316 µM
[14] = second compound 1 µM, first compound 0.1 µM
[15] = second compound 1 µM, first compound 0.316 µM
[16] = second compound 1 µM, first compound 1 µM
[17] = second compound 1 µM, first compound 3.16 µM
[18] = second compound 1 µM, first compound 10 µM
[19] = second compound 3.16 µM, first compound 0.0316 µM
[20] = second compound 3.16 µM, first compound 0.1 µM
[21] = second compound 3.16 µM, first compound 0.316 µM
[22] = second compound 3.16 µM, first compound 1 µM
[23] = second compound 3.16 µM, first compound 3.16 µM
[24] = second compound 3.16 µM, first compound 10 µM
[25] = second compound 10 µM, first compound 0.0316 µM
[26] = second compound 10 µM, first compound 0.1 µM
[27] = second compound 10 µM, first compound 0.316 µM
[28] = second compound 10 µM, first compound 1 µM
[29] = second compound 10 µM, first compound 3.16 µM
[30] = second compound 10 µM, first compound 10 µM
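Throughout, for viability, T/C: spheroids mix tumor cells with HUVEC endothelium and human MSC stroma; luminescence taken as viability surrogate after a week of drug exposure.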

CC(C)CC(NC(=O)C(Cc1ccccc1)NC(=O)c1cnccn1)B(O)O (stereo not given) + CC(CO)NC(=O)c1cc(-c2ccc(Cl)cc2)nn(-c2cnn(C)c2)c1=O
0.00438 µM: IC50 (second compound 0.1 µM)
0.00486 µM: IC50 (second compound 3.16 µM)
active: viability, T/C (second compound 0.1 µM, first compound 0.00949 µM) 5.92% | viability, T/C (second compound 0.1 µM, first compound 0.03 µM) 2.45% | viability, T/C (second compound 0.1 µM, first compound 0.0949 µM) 2% | viability, T/C (second compound 0.1 µM, first compound 0.3 µM) 0.19% | viability, T/C (second compound 0.316 µM, first compound 0.00949 µM) 6.1% | viability, T/C (second compound 0.316 µM, first compound 0.03 µM) 1.23% | viability, T/C (second compound 0.316 µM, first compound 0.0949 µM) 0.12% | viability, T/C (second compound 0.316 µM, first compound 0.3 µM) 1.89% | viability, T/C (second compound 1 µM, first compound 0.00949 µM) 6.39% | viability, T/C (second compound 1 µM, first compound 0.03 µM) 2.84% | viability, T/C (second compound 1 µM, first compound 0.0949 µM) 0.51% | viability, T/C (second compound 1 µM, first compound 0.3 µM) 0.29% | viability, T/C (second compound 3.16 µM, first compound 0.00949 µM) 6.11% | viability, T/C (second compound 3.16 µM, first compound 0.03 µM) 0.25% | viability, T/C (second compound 3.16 µM, first compound 0.0949 µM) 1.98% | viability, T/C (second compound 3.16 µM, first compound 0.3 µM) 1.99% | viability, T/C (second compound 10 µM, first compound 0.00949 µM) 3.86% | viability, T/C (second compound 10 µM, first compound 0.03 µM) 0.37% | viability, T/C (second compound 10 µM, first compound 0.0949 µM) 0.52% | viability, T/C (second compound 10 µM, first compound 0.3 µM) 1.58%
inactive: viability, T/C (second compound 0.1 µM, first compound 0.000949 µM) 78.8% | viability, T/C (second compound 0.1 µM, first compound 0.003 µM) 71.6% | viability, T/C (second compound 0.316 µM, first compound 0.000949 µM) 103% | viability, T/C (second compound 0.316 µM, first compound 0.003 µM) 94.7% | viability, T/C (second compound 1 µM, first compound 0.000949 µM) 113% | viability, T/C (second compound 1 µM, first compound 0.003 µM) 70.6% | viability, T/C (second compound 3.16 µM, first compound 0.000949 µM) 83.5% | viability, T/C (second compound 3.16 µM, first compound 0.003 µM) 81.6% | viability, T/C (second compound 10 µM, first compound 0.000949 µM) 68.2% | viability, T/C (second compound 10 µM, first compound 0.003 µM) 68.3%
0.00434 µM: IC50 (second compound 1 µM)
0.00536 µM: IC50 (second compound 0.316 µM)
0.00416 µM: IC50 (second compound 10 µM)

Nc1ccccc1NC(=O)c1ccc(CNC(=O)OCc2cccnc2)cc1 + CC(CO)NC(=O)c1cc(-c2ccc(Cl)cc2)nn(-c2cnn(C)c2)c1=O
4.56 µM: IC50 (second compound 0.1 µM)
2.94 µM: IC50 (second compound 1 µM)
3.62 µM: IC50 (second compound 3.16 µM)
inactive: viability, T/C [1] 119% | viability, T/C [2] 126% | viability, T/C [3] 123% | viability, T/C [4] 87.9% | viability, T/C [5] 66.2% | viability, T/C [6] 22.9% | viability, T/C [7] 111% | viability, T/C [8] 130% | viability, T/C [9] 114% | viability, T/C [10] 85.9% | viability, T/C [11] 57.1% | viability, T/C [12] 25.2% | viability, T/C [13] 118% | viability, T/C [14] 134% | viability, T/C [15] 120% | viability, T/C [16] 77.1% | viability, T/C [17] 54.6% | viability, T/C [18] 20% | viability, T/C [19] 115% | viability, T/C [20] 109% | viability, T/C [21] 117% | viability, T/C [22] 75.6% | viability, T/C [23] 58.8% | viability, T/C [24] 17.6% | viability, T/C [25] 94.7% | viability, T/C [26] 91% | viability, T/C [27] 101% | viability, T/C [28] 81.6% | viability, T/C [29] 52.6% | viability, T/C [30] 14.1%
3.36 µM: IC50 (second compound 10 µM)
3.74 µM: IC50 (second compound 0.316 µM)

O=C(C=Cc1cccc(S(=O)(=O)Nc2ccccc2)c1)NO + CC(CO)NC(=O)c1cc(-c2ccc(Cl)cc2)nn(-c2cnn(C)c2)c1=O
4.62 µM: IC50 (second compound 0.1 µM)
4.89 µM: IC50 (second compound 0.316 µM)
5.85 µM: IC50 (second compound 3.16 µM)
inactive: viability, T/C [1] 108% | viability, T/C [2] 107% | viability, T/C [3] 122% | viability, T/C [4] 93.2% | viability, T/C [5] 58.3% | viability, T/C [6] 35.5% | viability, T/C [7] 114% | viability, T/C [8] 135% | viability, T/C [9] 131% | viability, T/C [10] 91.2% | viability, T/C [11] 62.6% | viability, T/C [12] 35% | viability, T/C [13] 131% | viability, T/C [14] 126% | viability, T/C [15] 120% | viability, T/C [16] 92.9% | viability, T/C [17] 53.2% | viability, T/C [18] 26.5% | viability, T/C [19] 117% | viability, T/C [20] 101% | viability, T/C [21] 114% | viability, T/C [22] 98.1% | viability, T/C [23] 67.3% | viability, T/C [24] 35.1% | viability, T/C [25] 94.1% | viability, T/C [26] 90.6% | viability, T/C [27] 82.8% | viability, T/C [28] 86.2% | viability, T/C [29] 61.4% | viability, T/C [30] 25.1%
4.59 µM: IC50 (second compound 10 µM)
3.6 µM: IC50 (second compound 1 µM)
